In patent US11185523B2, “Use of bipolar trans carotenoids with chemotherapy and radiotherapy for treatment of cancer” (DIFFUSION PHARMACEUTICALS LLC, priority 2016, dated 2021):
Read-outs that look alike come from different tables or passages of the source.

Experiments:
[1] = test system: metastatic pancreatic cancer; settings: metastatic disease, erlotinib with gemcitabine vs gemcitabine alone, cited from earlier work; for one-year survival rate: P=0.023; for median overall survival: P=0.038
DMBA breast tumors = experiment: DMBA breast tumor model, TSC before chemotherapy; assay type: in vivo; settings: TSC and control groups
Procedure: Breast tumors were induced through injection of DMBA (dimethylbenzantracene) under the mammary tissue of female rats. The tumors usually grow in most rats and reach measurable conditions after 10 days.
The following studies used a method in which a 3-mL syringe is filled first with 1 ml of DMBA dissolved in sunflower seed oil (20 mg DMBA per mL of solution). Following that, 2 mL's of air are pulled into the syringe. The needle of the syringe is then inserted under the mammary tissue near a hind leg and the air in the syringe is carefully injected. The injection of the air forms a “pocket”, and then the 1 mL of DMBA solution is injected into that pocket.
After the tumors have grown up (about 10 days), their volumes are estimated by measuring the diameter (d) and the length (L) of the football-shaped tumors formed. This is done using calipers after feeling the tumor with one's fingers. To estimate the volume of the tumor, you multiply the diameter squared times the length and divide by 2: Tumor volume (in mm3)={(d in mm)^22}×(L in mm)
TSC or saline (controls) was injected in the tail vein of the rats at a volume of 0.1 mL and a dose of 0.25 mg/kg TSC about 1-2 hours before the chemotherapeutic agent was injected intraperitoneally (IP) in the rats.
In order to understand which dosages are efficacious when used with chemotherapy, a rat model of breast tumors was used. The model involves injecting the chemical dimethylbenzanthracene (DMBA) under the mammary gland of a female Sprague-Dawley rat. After a few days, tumors begin to grow and can be measured by feeling the football-shaped tumor under the skin and measured using calipers.

[2] = test system: metastatic pancreatic cancer; settings: treatment naive patients with metastatic cancer; nab-paclitaxel plus gemcitabine vs gemcitabine; cited from earlier work
pancreatic cancer = settings: cited from earlier work; for overall survival: Folfirinox regimen vs gemcitabine
recurrent GBM = settings: cited from earlier work
newly diagnosed GBM = settings: cited from earlier work

For `C#Cc1cccc(Nc2ncnc3cc(OCCOC)c(OCCOC)cc23)c1` [erlotinib], the one-year survival rate [1] is listed as 23% and the median overall survival [1] is listed as 6.24 months.

In the case of `Nc1ccn([C@@H]2O[C@H](CO)[C@@H](O)C2(F)F)c(=O)n1` [gemcitabine, reference compound], the mortality (DMBA breast tumors; gemcitabine 5 mg/kg IP on days 0, 3) is given as “Most rats in both groups were dead on Day 7”, the mortality (DMBA breast tumors; gemcitabine 10 mg/kg IP on days 0, 3) is given as “Most rats in both groups were dead on Day 6” and the one-year survival rate [1] is given as 17%. For the same molecule, the median overall survival [1] was 5.91 months, the overall survival [2] was 6.7 months and the overall survival (pancreatic cancer) was 6.8 months.

For Folfirinox, the overall survival (pancreatic cancer) is listed as 11.1 months and the adverse events (pancreatic cancer; Folfirinox treatment) is listed as “accompanied by serious adverse events”.

For bevacizumab, the overall six-month survival (recurrent GBM; Phase 2 study, recurrent GBM) is given as 54%, the six-month progression-free survival (recurrent GBM; Phase 2 study, recurrent GBM, historical 9-15%) is given as 25% and the six-month progression-free survival (recurrent GBM; another Phase 2 study, lower dose but higher frequency) is given as 42.6%. The “symptom burden, quality of life, neurocognitive function” value (newly diagnosed GBM; human, in vivo) was “increased symptom burden, a worse quality of life, and a decline in neurocognitive function”, the progression free survival (newly diagnosed GBM; radiation, TMZ and bevacizumab vs only radiation and TMZ, both studies) was “increase in progression free survival” and the overall survival (newly diagnosed GBM; radiation, TMZ and bevacizumab vs only radiation and TMZ, two clinical trials) was “no difference in overall survival”.
